Earlier results on five compounds are cited in patent US20090041840A1, “Positive wakeup pharmaceutical sleep system with compatible pre-bedtime administration” (priority 2003, published 2009).

Structures are written as SMILES.

Test in series [1]: not given
The source holds these as a separate data set.

For series [2] the following is noted: Wesensten.

On to `NC(=O)C[S+]([O-])C(c1ccccc1)c1ccccc1` (centres unmarked) [modafinil], for which, for the setting “Wong, et al”, the Half-life entry is listed as “approximately 15 hours”.
Turning to `CCN(C(C)=O)c1cccc(-c2ccnc3c(C#N)cnn23)c1` [zaleplon], the Solubility in water entry in series [1] was “practically insoluble”.
On to `COC(=O)C(c1ccccc1)C1CCCCN1` (racemic) [methylphenidate], for which, for the setting “literature sources”, the “Half-life, average” value is 2.5 h.
Turning to `CCOC(=O)c1ncn2c1CN(C)C(=O)c1cc(F)ccc1-2` [Flumazenil, ethyl 8-fluoro-5,6-dihydro-5-methyl-6-oxo-4H-imidazo(1,5a)(1,4)benzodiazepine-3-carboxylate], in series [2], the “Effect in countering sleep deprivation” value is reported as “ineffective”.
`Cn1c(=O)c2c(ncn2C)n(C)c1=O` [caffeine, 1,3,7-trimethylxanthine]: the “Mean half-life in plasma” value (healthy individuals, Brachtel and Richter, Busto et al.) is “about 5 hours”.
